# Counter-ions that a name gives are not always drawn.
# Tested on: influx of neutrophils to the lung in LPS-challenged rats
# Test: Rat LPS neutrophilia model
# Type: in vivo
# Details: LPS aerosol, lavage 4 hours later, in at least one of the range of conditions tested, significance p<0.05; call rule not given here
# Outline: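 Rats pretreated 15 min–24 h with compound or vehicle, given intratracheally (200 ul, isoflurane anaesthesia) as suspension in various vehicles, then exposed to LPS aerosol (100 ug/ml) 15 min. BAL 4 h later; Diffquick-stained differential counts give % inhibition of neutrophils versus no-compound controls at a set concentration and pretreatment time.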
row,Structure (SMILES),inhibition of neutrophilia
1,"Cc1ccc(C(=O)Nc2ccc(F)cc2)cc1-c1nc(N(C)CCN(C)C)nc2c1CNC(=O)N2c1c(F)cccc1F [Example 32, 3-{8-(2,6-difluorophenyl)-2-[[2-(dimethylamino)ethyl](methyl)amino]-7-oxo-5,6,7,8-tetrahydropyrimido[4,5-d]pyrimidin-4-yl}-N-(4-fluorophenyl)-4-methylbenzamide]",statistically nonsignificant inhibition of neutrophilia

# Molecular target: T1, Recombinant human p38α (Homo sapiens, UniProt Q16539)
# T1 construct: GST; made in house
# Test: Fluorescence anisotropy kinase binding assay (standard or low volume)
# Details: 12 nM p38α, 5 nM fluorescent ligand
# Excerpt: (§1) The concentration of kinase enzyme should preferably be >2×Kf. The concentration of fluorescent ligand required will depend on the instrumentation used, and the fluorescent and physicochemical properties. The concentration used must be lower than the concentration of kinase enzyme, and preferably less than half the kinase enzyme concentration.
# The fluorescent ligand is the following compound:
# [drawing 329] • which is derived from 5-[2-(4-aminomethylphenyl)-5-pyridin-4-yl-1H-imidazol-4-yl]-2-chlorophenol and rhodamine green. Recombinant human p38α was expressed as a GST-tagged protein. To activate this protein, 3.5 μM unactivated p38α was incubated in 50 mM Tris-HCl pH 7.5, 0.1 mM EGTA, 0.1% 2-mercaptoethanol, 0.1 mM sodium vanadate, 10 mM MgAc, 0.1 mM ATP with 200 nM MBP-MKK6 DD at 30 degrees for 30 mins. Following activation p38α was re-purified and the activity assessed using a standard filter-binding assay. Protocol: All components are dissolved in buffer of composition 62.5 mM HEPES, pH 7.5, 1.25 mM CHAPS, 1 mM DTT, 12.5 mM MgCl2 with final concentrations of 12 nM p38α and 5 nM fluorescent ligand. 30 μl of this reaction mixture is added to wells containing 1 μl of various concentrations of test compound (0.28 nM-16.6 μM final) or DMSO vehicle (3% final) in NUNC 384 well black microtitre plate and equilibrated for 30-60 mins at room temperature. Fluorescence anisotropy is read in Molecular Devices Acquest (excitation 485 nm/emission 535 nm). Definitions: Ki=dissociation constant for inhibitor binding • Kf=dissociation constant for fluorescent ligand binding
# as §1, with “2×Kf.” for “>2×Kf.”, “concentration. The fluorescent ligand is the following compound:” for “concentration.”
# which is derived from 5-[2-(4-aminomethylphenyl)-5-pyridin-4-yl-1H-imidazol-4-yl]-2-chlorophenol and rhodamine green. Recombinant human p38α was expressed as a GST-tagged protein. To activate this protein, 3.5 μM unactivated p38α was incubated in 50 mM Tris-HCl pH 7.5, 0.1 mM EGTA, 0.1% 2-mercaptoethanol, 0.1 mM sodium vanadate, 10 mM MgAc, 0.1 mM ATP with 200 nM MBP-MKK6 DD at 30 degrees for 30 mins. Following activation p38α was re-purified and the activity assessed using a standard filter-binding assay. Protocol: All components are dissolved in buffer of composition 62.5 mM HEPES, pH 7.5, 1.25 mM CHAPS, 1 mM DTT, 12.5 mM MgCl2 with final concentrations of 12 nM p38α and 5 nM fluorescent ligand. […] of this reaction mixture is added to wells containing 0.1 μl of various concentrations of test compound (0.02 nM-25 μM final) or DMSO vehicle (1.7% final) in Greiner low volume 384 well black microtitre plate and equilibrated for 30-60 mins at room temperature. Fluorescence anisotropy is read in Molecular Devices Acquest (excitation 485 nm/emission 535 nm). Definitions: Ki dissociation constant for inhibitor binding • Kf=dissociation constant for fluorescent ligand binding It is noted that there are two assay formats shown above for the Fluorescence anisotropy kinase binding assay. The only difference between these two assays is the volume used and the plate type. […] The results described herein may have been performed in either assay format and are not differentiated as to which.
# T1 sequence (Q16539 whole entry): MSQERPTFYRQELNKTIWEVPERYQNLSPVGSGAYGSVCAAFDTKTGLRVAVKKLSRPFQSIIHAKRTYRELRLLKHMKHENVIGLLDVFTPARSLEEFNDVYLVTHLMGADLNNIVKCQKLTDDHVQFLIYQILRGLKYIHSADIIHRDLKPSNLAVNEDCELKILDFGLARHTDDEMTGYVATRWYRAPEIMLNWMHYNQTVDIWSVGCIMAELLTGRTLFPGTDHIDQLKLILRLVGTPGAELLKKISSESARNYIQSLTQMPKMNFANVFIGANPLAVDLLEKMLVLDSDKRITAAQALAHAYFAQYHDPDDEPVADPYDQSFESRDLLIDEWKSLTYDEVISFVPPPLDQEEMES
row,Structure (SMILES),"active in the assay (pIC50, p38α binding)"
1,"Cc1ccc(C(=O)NCC2CC2)cc1-c1nc(N(C)CCN)nc2c1CNC(=O)N2c1c(F)cccc1F [4(c), 3-[2-[(2-Aminoethyl)(methyl)amino]-8-(2,6-difluorophenyl)-7-oxo-5,6,7,8-tetrahydropyrimido[4,5-d]pyrimidin-4-yl]-N-(cyclopropylmethyl)-4-methylbenzamide]",active
2,"Cc1ccc(C(=O)Nc2ccc(F)cc2)cc1-c1nc(N(C)CCN(C)C)nc2c1CNC(=O)N2c1c(F)cccc1F [Example 32, 3-{8-(2,6-difluorophenyl)-2-[[2-(dimethylamino)ethyl](methyl)amino]-7-oxo-5,6,7,8-tetrahydropyrimido[4,5-d]pyrimidin-4-yl}-N-(4-fluorophenyl)-4-methylbenzamide]",active

# Tested on: IL-8 production by human neutrophils
# Test: TNF-stimulated IL-8 production from human neutrophils
# Type: cell-based
# Details: Neutrophil, bound, not more than 50% inhibition at 100 nM, read-out: IC50
# Procedure: TNF-Stimulated IL-8 Production from Human Neutrophils The effect of test compounds on TNF-stimulated IL8 production by human neutrophils is measured as follows. Neutrophils are prepared from blood obtained from consenting donors, using standard methods. Blood is collected in heparinized syringes and layered over histopaque (30 ml/20 ml). Following centrifugation, the red cell pellet is resuspended in PBS and purified over a dextran gradient. Red blood cells are lysed with water for 40 sec, remaining granulocytes collected by centrifugation and resuspended at 1.5×10̂6 cells/ml. Cells are added (0.5-1 ml) to 48 well plates already containing compound at 1000×final concentration in neat DMSO or 10% DMSO in RPMI1640 with 10% FBS. TNF (final concentration 100 ng/ml) is used as the stimulus. Cells incubated for approximately 20 hrs at 37° C., 5% CO2. Levels of IL-8 in the cell free supernatant are determined by sandwich ELISA, and inhibition relative to a control with DMPO but no compound is calculated.
row,Structure (SMILES),IC50 [nM]
1,"Cc1ccc(C(=O)NCC2CC2)cc1-c1nc(N(C)CCN)nc2c1CNC(=O)N2c1c(F)cccc1F [4(c), 3-[2-[(2-Aminoethyl)(methyl)amino]-8-(2,6-difluorophenyl)-7-oxo-5,6,7,8-tetrahydropyrimido[4,5-d]pyrimidin-4-yl]-N-(cyclopropylmethyl)-4-methylbenzamide]",> 100
2,"CCN(CC)CCCNc1nc(-c2cc(C(=O)O)ccc2C)c2c(n1)N(c1c(F)cccc1F)C(=O)NC2 [228(b), 3-[2-{[3-(diethylamino)propyl]amino}-8-(2,6-difluorophenyl)-7-oxo-5,6,7,8-tetrahydropyrimido[4,5-d]pyrimidin-4-yl]-4-methylbenzoic acid]",> 100
3,"CCCNC(=O)c1ccc(C)c(-c2nc(NCCCNCC)nc3c2CNC(=O)N3c2c(F)cccc2F)c1 [230(b), 3-(8-(2,6-difluorophenyl)-2-{[3-(ethylamino)propyl]amino}-7-oxo-5,6,7,8-tetrahydropyrimido[4,5-d]pyrimidin-4-yl)-4-methyl-N-propylbenzamide trifluoroacetate]",> 100
4,"Cc1ccc(C(=O)NC(C)C)cc1-c1nc(NCCCNC(C)C)nc2c1CNC(=O)N2c1c(F)cccc1F [Example 49, 3-[8-(2,6-difluorophenyl)-2-({3-[(1-methylethyl)amino]propyl}amino)-7-oxo-5,6,7,8-tetrahydropyrimido[4,5-d]pyrimidin-4-yl]-4-methyl-N-(1-methylethyl)benzamide]",> 100
5,"Cc1ccc(C(=O)NC(C)C)cc1-c1nc(NCCCNC(C)(C)C)nc2c1CNC(=O)N2c1c(F)cccc1F [Example 50, 3-[8-(2,6-difluorophenyl)-2-({3-[(1,1-dimethylethyl)amino]propyl}amino)-7-oxo-5,6,7,8-tetrahydropyrimido[4,5-d]pyrimidin-4-yl]-4-methyl-N-(1-methylethyl)benzamide]",> 100
6,"CCCNC(=O)c1ccc(C)c(-c2nc(NCCNC(C)C)nc3c2CNC(=O)N3c2c(F)cccc2F)c1 [Example 62, 3-[8-(2,6-difluorophenyl)-2-({2-[(1-methylethyl)amino]ethyl}amino)-7-oxo-5,6,7,8-tetrahydropyrimido[4,5-d]pyrimidin-4-yl]-4-methyl-N-propylbenzamide]",> 100
7,"CCCNC(=O)c1ccc(C)c(-c2nc(NCCCNC(C)(C)C)nc3c2CNC(=O)N3c2c(F)cccc2F)c1 [Example 65, 3-[8-(2,6-difluorophenyl)-2-({3-[(1,1-dimethylethyl)amino]propyl}amino)-7-oxo-5,6,7,8-tetrahydropyrimido[4,5-d]pyrimidin-4-yl]-4-methyl-N-propylbenzamide]",> 100
8,"CN(C)CCNc1nc(-c2cccc(C(=O)N(C)C)c2)c2c(n1)N(c1c(F)cccc1F)C(=O)NC2 [Example 90, 3-(8-(2,6-difluorophenyl)-2-{[2-(dimethylamino)ethyl]amino}-7-oxo-5,6,7,8-tetrahydropyrimido[4,5-d]pyrimidin-4-yl)-N,N-dimethylbenzamide]",> 100
9,"CNC(=O)c1ccc(-c2nc(NCCN(C)C)nc3c2CNC(=O)N3c2c(F)cccc2F)c(C)c1 [Example 109, 4-(8-(2,6-difluorophenyl)-2-{[2-(dimethylamino)ethyl]amino}-7-oxo-5,6,7,8-tetrahydropyrimido[4,5-d]pyrimidin-4-yl)-N,3-dimethylbenzamide trifluoroacetate]",> 100
10,"Cc1c(F)cc(C(=O)N(C)C)cc1-c1nc(NCCN(C)C)nc2c1CNC(=O)N2c1c(F)cccc1F [Example 113, 3-(8-(2,6-difluorophenyl)-2-{[2-(dimethylamino)ethyl]amino}-7-oxo-5,6,7,8-tetrahydropyrimido[4,5-d]pyrimidin-4-yl)-5-fluoro-N,N,4-trimethylbenzamide]",> 100
11,"Cc1ccc(C(=O)NC(C)C)cc1-c1nc(N(C)CCCN(C)CCCN(C)C)nc2c1CNC(=O)N2c1c(F)cccc1F [Example 116, 3-{8-(2,6-difluorophenyl)-2-[{3-[[3-(dimethylamino)propyl]-(methyl)amino]propyl}(methyl)amino]-7-oxo-5,6,7,8-tetrahydropyrimido[4,5-d]pyrimidin-4-yl}-4-methyl-N-(1-methylethyl)benzamide]",> 100
12,"Cc1ccc(C(=O)NCC(C)(C)C)cc1-c1nc(NCCN(C)C)nc2c1CNC(=O)N2c1c(F)cccc1F [Example 125, 3-(8-(2,6-difluorophenyl)-2-{[2-(dimethylamino)ethyl]amino}-7-oxo-5,6,7,8-tetrahydropyrimido[4,5-d]pyrimidin-4-yl)-N-(2,2-dimethylpropyl)-4-methylbenzamide]",> 100
13,"CCc1ccc(C(N)=O)cc1-c1nc(NCCN(C)C)nc2c1CNC(=O)N2c1c(F)cccc1F [Example 146, 3-(8-(2,6-difluorophenyl)-2-{[2-(dimethylamino)ethyl]amino}-7-oxo-5,6,7,8-tetrahydropyrimido[4,5-d]pyrimidin-4-yl)-4-ethylbenzamide]",> 100
14,"Cc1ccc(C(=O)NC(C)C)cc1-c1nc(NCCN2CCN(Cc3ccccc3)CC2)nc2c1CNC(=O)N2c1c(F)cccc1F [Example 197, 3-[8-(2,6-difluorophenyl)-7-oxo-2-({2-[4-(phenylmethyl)-1-piperazinyl]ethyl}amino)-5,6,7,8-tetrahydropyrimido[4,5-d]pyrimidin-4-yl]-4-methyl-N-(1-methylethyl)benzamide trifluoroacetate]",> 100
15,"CCCNC(=O)c1ccc(C)c(-c2nc(NCCC(=O)O)nc3c2CNC(=O)N3c2c(F)cccc2F)c1 [Example 229, N-(8-(2,6-difluorophenyl)-4-{2-methyl-5-[(propylamino)carbonyl]phenyl}-7-oxo-5,6,7,8-tetrahydropyrimido[4,5-d]pyrimidin-2-yl)-β-alanine]",> 100

# Same assay, conditions: Neutrophil, bound, screened at a different top concentration, read-out: IC50
row,Structure (SMILES),IC50 [nM]
1,"Cc1ccc(C(=O)NC(C)C)cc1-c1nc(N2CCC(N3CCOCC3)CC2)nc2c1CNC(=O)N2c1c(F)cccc1F [Example 71, 3-{8-(2,6-difluorophenyl)-2-[4-(4-morpholinyl)-1-piperidinyl]-7-oxo-5,6,7,8-tetrahydropyrimido[4,5-d]pyrimidin-4-yl}-4-methyl-N-(1-methylethyl)benzamide]",> 1

# Same assay, conditions: Neutrophil, ends given as 'less than' / 'greater than', read-out: IC50, broad range of data upon multiple runs
row,Structure (SMILES),IC50 [nM]
1,"Cc1c(F)cc(C(=O)Nc2ccc(F)cc2)cc1-c1nc(NCCN(C)C)nc2c1CNC(=O)N2c1c(F)cccc1F [Example 115, 3-(8-(2,6-difluorophenyl)-2-{[2-(dimethylamino)ethyl]amino}-7-oxo-5,6,7,8-tetrahydropyrimido[4,5-d]pyrimidin-4-yl)-5-fluoro-N-(4-fluorophenyl)-4-methylbenzamide]",1 to 100

# — patent US20090239846A1, “Novel Compounds” (Glaxo Group Limited, priority 2005, published 2009)
